Reference: ChEMBL document CHEMBL5338769, “Discovery of Norisoboldine Analogue III11 as a Novel and Potent Aryl Hydrocarbon Receptor Agonist for the Treatment of Ulcerative Colitis” (J Med Chem, 2023)
Calls of active or inactive are those of the source. The calls are words filed in the database; no cut-off is given here.

How the values were obtained:
[1] = Protein binding in rat plasma at 20.13 ug/ml of total concentration measured after 12 hrs by ultrafiltration based HPLC analysis; type: ADME, cell-free; details: at 20.13 µg/mL, read-out: PPB
Regulatory T cell = assay: Induction of cell differentiation in C57BL/6 mouse naive regulatory T cells at 1 uM incubated for 72 hrs by flow cytometric analysis; type: functional, cell-based
[2] = MRT in Sprague-Dawley rat at 3 mg/kg, iv measured upto 1440 min by LC-MS/MS analysis; type: ADME, organism-based; details: in vivo
[3] = Oral bioavailability in Sprague-Dawley rat at 30 mg/kg measured upto 1440 min by LC-MS/MS analysis; type: ADME, organism-based; details: in vivo
Mus musculus [4] = assay: Anti-colitis activity against DSS-induced ulcerative colitis C57BL/6 mouse model assessed as amelioration of mucosal architecture score by measuring ulceration in colon at 10 to 20 mg/kg, po administered once a day for 10 days by H&E staining based histopathological analysis; type: functional, organism-based; details: dose 10-20 mg/kg, time 10.0 day
Mus musculus [5] = assay: Anti-colitis activity against DSS-induced ulcerative colitis C57BL/6 mouse model assessed as amelioration of epithelial change score by measuring crypt abscesses in colon at 10 to 20 mg/kg, po administered once a day for 10 days by H&E staining based histopathological analysis; type: functional, organism-based; details: dose 10-20 mg/kg, time 10.0 day
Mus musculus [6] = assay: Anti-colitis activity against DSS-induced ulcerative colitis C57BL/6 mouse model assessed as amelioration of epithelial change score by measuring loss of goblet cells in colon at 10 to 20 mg/kg, po administered once a day for 10 days by H&E staining based histopathological analysis; type: functional, organism-based; details: dose 10-20 mg/kg, time 10.0 day
[7] = Induction of cell differentiation in C57BL/6 mouse naive regulatory T cells assessed as increase in cell frequency at 0.3 uM incubated for 72 hrs by flow cytometric analysis (reference value: 24.9%); type: functional
Mus musculus [8] = assay: Anti-colitis activity in DSS-induced ulcerative colitis C57BL/6 mouse model assessed as decrease in IL-17 expression at 20 mg/kg, po administered once a day for 10 days by qRT-PCR analysis; type: functional; design: scale not given: the % may be the effect or the level left; details: time 10 day

In the case of COc1cc2c3c(c1)-c1ccc(O)cc1CC3NCC2 (centres undefined), the fraction unbound at 12 h, 20.13 ug/ml [1] is reported as 0.498, the Activity (Regulatory T cell) is reported as “Active” and the MRT [2] is reported as 3.07 h. For the same compound, the bioavailability [3] was 87.4%, the Activity (Mus musculus [4]) was “Active” and the Activity (Mus musculus [5]) was “Active”. For the same compound, the Activity (Mus musculus [6]) was “Active”, the Activity [7] was 26.7% and the Activity (Mus musculus [8]) was 86.96%.
